Legend:
LACV [1] = experiment: MPID-NGS mutation rate of LACV RNA in brain tissue, IN-infected mice; format: in vivo, C57BL/6 mice; details: IN infection
Text: We used a Primer ID (PID) library preparation approach with Illumina MiSeq next-generation sequencing (NGS) to examine the mutagenic effects of these drugs on viral RNA allowing deep coverage of the viral population while maintaining a low method error rate (1 in 10,000 nucleotides). We designed cDNA primers targeting a 372 bp region of the RdRp gene within the L segment (referred as L7 in the study), and included a second amplicon covering a 455 bp portion of the M segment (referred as M4 in the study). Each cDNA primer included a block of random nucleotides (11 bases long) as the Primer ID/unique molecular identifier (UMI). Extracted viral RNA was reversed transcribed using SuperScript III (Thermal Fisher) to make cDNA in a single reaction with the two different cDNA primers. […] After gel purification/extraction of the PCR product (Qiagen MinElute Gel Extraction kit), the extracted libraries were quantified using a Qubit fluorimeter and subjected to Agilent TapeStation analysis. For each sequencing run, 24 quantified libraries were pooled for MiSeq 300 base paired-end sequencing at the UNC High Throughput Sequencing Facility. […] Each type of substitution rate was calculated against the wildtype sequence at the sequenced regions. The sequencing date were submitted to the National Center for Biotechnology Information (NCBI) Sequence Read Archive (SRA), accession number is PRJNA1092655. […]

LACV [2] = experiment: LACV encephalitis mouse model, IN inoculation; format: in vivo, C57BL/6 mice
Procedure: (§1) Viral RNA was isolated using the Zymo Direct-zol RNA MiniPrep Kit (Zymo Research) per the manufacturer’s directions. First-strand complementary DNA (cDNA) was generated using iScript Reverse Transcriptase (Bio-Rad). qRT-PCR was performed using PowerUp SYBR Green Master Mix (ThermoFischer) on QuantStudio 6 (Applied Biosystems). Primers used for the reaction were synthesized by Integrated DNA Technologies (IDT) to quantify LACV viral RNA, targeting the M segment of the genome: forward primer 5’-[…]-3’, reverse primer 5’-[…]-3’.
(§2) All animal experiments were performed following the protocols 2019-023-E and 2022-019-E approved by the National Institute of Allergy and Infectious Disease/National Institutes of Health/Rocky Mountain Laboratories Institutional Animal Care and Use Committee. For this study, a mix of male and female C57BL/6 mice at 23 to 25 days old were used. Mice were divided evenly and infected with LACV at either 1 × 10^3 pfu by an IP route or 1 x 10^2 pfu by an IN route. IP-infected mice were started on treatment with MOV at either the date of infection or at 3 dpi; the IN-infected mice were started on treatment on the day of infection. MOV was diluted in 10% polyethylene glycol (PEG), 2.5% Cremophor RH40, and 87.5% sterile water which was used as vehicle control. For oral administration, 300 mg/kg of MOV twice a day was given for up to 10 consecutive days using a straight 24-gauge ball-tip disposable feeding needle (Instech). Mice were examined twice daily for 28–30 days for clinical signs of LACV-induced neurologic disease, which mostly involved limb paralysis, ataxia, or repeated seizures. Mice showing one or more of these clinical symptoms were scored as having clinically significant disease and were subsequently euthanized for tissue removal. Occasionally, LACV-infected mice died from the acute seizures. These mice were also scored as having clinically significant disease and underwent tissue removal when possible.
(§3) Brain tissue and lymph nodes were harvested from mice with clinical symptoms (as described above) or at 5 dpi and stored at -80°C. Half of the sagittal section of the brain tissue was used for plaque assays, and the other half for RNA isolation for qRT-PCR and sequencing. For the plaque assay, brain tissues were homogenized in the presence of DMEM using the Bead Mill 24 (Fisher Scientific) homogenizer at 5,300 rpm for 25 seconds. Homogenized samples were centrifuged at 5000 x g for 10 min. Supernatants were then diluted in DMEM containing 10% FBS to 10^−1 to 10^−7 dilutions and subjected to a plaque assay.

LACV [3] = experiment: MPID-NGS mutation rate of LACV RNA in brain tissue, IP-infected mice; format: in vivo, C57BL/6 mice
Text: We used a Primer ID (PID) library preparation approach with Illumina MiSeq next-generation sequencing (NGS) to examine the mutagenic effects of these drugs on viral RNA allowing deep coverage of the viral population while maintaining a low method error rate (1 in 10,000 nucleotides). We designed cDNA primers targeting a 372 bp region of the RdRp gene within the L segment (referred as L7 in the study), and included a second amplicon covering a 455 bp portion of the M segment (referred as M4 in the study). Each cDNA primer included a block of random nucleotides (11 bases long) as the Primer ID/unique molecular identifier (UMI). Extracted viral RNA was reversed transcribed using SuperScript III (Thermal Fisher) to make cDNA in a single reaction with the two different cDNA primers. After bead purification, the cDNA was amplified by PCR using a mixture of forward primers and a universal reverse primer, followed by a second round of PCR to incorporate Illumina sequencing adapters and barcodes within the amplicons. After gel purification/extraction of the PCR product (Qiagen MinElute Gel Extraction kit), the extracted libraries were quantified using a Qubit fluorimeter and subjected to Agilent TapeStation analysis. For each sequencing run, 24 quantified libraries were pooled for MiSeq 300 base paired-end sequencing at the UNC High Throughput Sequencing Facility. Primers used for the library prep can be found in S1 Table. The initial Primer ID data were processed using the Illumina bcl2fastq pipeline (version 2.20.0), and then template consensus sequences (TCSs) were constructed using the tcs pipeline version 2.5.1 (https://primer-id.org/). Each type of substitution rate was calculated against the wildtype sequence at the sequenced regions. The sequencing date were submitted to the National Center for Biotechnology Information (NCBI) Sequence Read Archive (SRA), accession number is PRJNA1092655.
All animal experiments were performed following the protocols 2019-023-E and 2022-019-E approved by the National Institute of Allergy and Infectious Disease/National Institutes of Health/Rocky Mountain Laboratories Institutional Animal Care and Use Committee. For this study, a mix of male and female C57BL/6 mice at 23 to 25 days old were used. Mice were divided evenly and infected with LACV at either 1 × 10^3 pfu by an IP route or 1 x 10^2 pfu by an IN route. […] Mice showing one or more of these clinical symptoms were scored as having clinically significant disease and were subsequently euthanized for tissue removal. […] These mice were also scored as having clinically significant disease and underwent tissue removal when possible.

LACV [4] = experiment: LACV encephalitis mouse model, IP inoculation; format: in vivo, C57BL/6 mice
Procedure: as §1, §2, §3
We used a digital scanner to scan the plaque assay plates. Digitized images were imported into FIJI/ImageJ v1.52n, and pixel calibration values were calculated based on the well diameter and corresponding digitized image. To quantify plaque size (surface area), wells with clearly isolated plaques were selected for segmentation and analysis. The image lookup table for each well was inverted followed by binarization prior to analysis, with a minimum area of 0.39 mm^2 to eliminate false positives due to slight variations in crystal violet staining. The measurements were imported into Microsoft Excel for data compilation, and graphed and analyzed using GraphPad Prism v9.3.1. Analysis of plaque size was done only when the plaque assays for different virus samples were done in parallel.

LACV [5] = experiment: MPID-NGS mutation rate of LACV in cell culture; format: cell-based, La Crosse virus; details: Vero cells; RBV, FAV: increase only at 100 μM; NHC also in hNSCs and N2a
Procedure: (§4) Cells were seeded in 24-well plates (1 × 10^5 cells/well) and infected with LACV (0.1 MOI). At 1 hour post infection (hpi), medium was replaced with fresh medium containing 6 different concentrations for each of the drugs. RBV and FAV were tested at concentrations of 1, 3, 10, 30, 100, and 300 μM, while NHC was tested at concentrations of 0.1, 0.3, 1, 3, 10 and 30 μM. DMSO was used as vehicle control. At 24 hpi, the cell supernatant was harvested, centrifuged to eliminate cell debris and stored at −80 °C for sequencing (described below) and plaque assay following the method of Ojha et al. 2021 [32]. Quantified virus titers were plotted to represent antiviral efficacy. The EC50 (50% effective concentration representing a 50% reduction in virus titer) was determined by extrapolating a dose-response curve using GraphPad Prism 8 and 9.
We used a Primer ID (PID) library preparation approach with Illumina MiSeq next-generation sequencing (NGS) to examine the mutagenic effects of these drugs on viral RNA allowing deep coverage of the viral population while maintaining a low method error rate (1 in 10,000 nucleotides). We designed cDNA primers targeting a 372 bp region of the RdRp gene within the L segment (referred as L7 in the study), and included a second amplicon covering a 455 bp portion of the M segment (referred as M4 in the study). Each cDNA primer included a block of random nucleotides (11 bases long) as the Primer ID/unique molecular identifier (UMI). […] After gel purification/extraction of the PCR product (Qiagen MinElute Gel Extraction kit), the extracted libraries were quantified using a Qubit fluorimeter and subjected to Agilent TapeStation analysis. For each sequencing run, 24 quantified libraries were pooled for MiSeq 300 base paired-end sequencing at the UNC High Throughput Sequencing Facility. […] Each type of substitution rate was calculated against the wildtype sequence at the sequenced regions. The sequencing date were submitted to the National Center for Biotechnology Information (NCBI) Sequence Read Archive (SRA), accession number is PRJNA1092655.

LACV [6] = experiment: Antiviral efficacy against LACV in hNSCs, virus titer by plaque assay; format: cell-based; details: La Crosse virus, LACV 0.1 MOI, 24 hpi, read-out: EC50 (50% reduction in virus titer)
Procedure: as §4

LACV [7] = experiment: Antiviral efficacy against LACV in N2a cells, virus titer by plaque assay; format: cell-based; details: La Crosse virus, LACV 0.1 MOI, 24 hpi, read-out: EC50 (50% reduction in virus titer)
Procedure: as §4

hNSCs = details: copied and converted to µM from µg/ml, ref not given; cited from earlier work
LACV [8] = experiment: Antiviral efficacy against LACV in Vero cells, virus titer by plaque assay; format: cell-based; details: La Crosse virus, LACV 0.1 MOI, 24 hpi, read-out: EC50 (50% reduction in virus titer)
Procedure: as §4

Vero cells = details: copied and converted to µM from µg/ml, ref not given; cited from earlier work
[9] = day 5, MOV from day 0, IP infection
[10] = oral MOV, started on the day of infection

CC(C)C(=O)OC[C@H]1O[C@@H](n2ccc(NO)nc2=O)[C@H](O)[C@@H]1O [MOV, molnupiravir]
increase in C-to-U mutations vs vehicle (LACV [1]): 4.3 per 10,000 bases | increase in G-to-A mutations vs vehicle (LACV [1]): 4.3 per 10,000 bases | mice with clinical signs out of 13 (LACV [2]; MOV 300 mg/kg oral twice daily, IN infection, vehicle 7): 4 | reduction in disease vs vehicle (LACV [2]; MOV oral from day of infection, IN infection): ~50% | infectious virus titer in the brain vs vehicle (plaque assay) (LACV [2]; clinical mice, IN infection): slightly, but not significantly decreased | viral RNA in the brain vs vehicle (qRT-PCR) (LACV [2]; clinical mice, IN infection): significantly decreased | disease reduced by (abstract) (LACV [2]; virus administered intranasally): 23% | increase in C-to-U transition rate vs vehicle (LACV [3]; brain tissue, IP infection): 9.1 per 10,000 bases | increase in G-to-A transition rate vs vehicle (LACV [3]; brain tissue, IP infection): 5.2 per 10,000 bases | increase in total mutation rate of the virus vs vehicle (LACV [3]; brain tissue, IP infection, averaged across amplicons): 2.8 per 10,000 bases | decrease in viral load in brain tissue per 1 mutation increase per 10,000 nucleotides (LACV [3]; estimate from mutation rate vs LACV copy number): approximately 4.4 fold | mice survived through 28-30 dpi (LACV [4]; MOV 300 mg/kg oral twice daily, delayed until 3 dpi, LACV 10^3 pfu IP): 15% | mice survived to 28-30 dpi (LACV [4]; MOV 300 mg/kg oral twice daily, started on the day of infection, LACV 10^3 pfu IP): 31% | infectious virus titer in brain tissue vs vehicle (plaque assay) (LACV [4]; [9]): significantly decreased | viral RNA load in brain tissue vs vehicle (qRT-PCR) (LACV [4]; [9]): significantly decreased | viral RNA load in lymph nodes vs vehicle (qRT-PCR) (LACV [4]; [9]): significantly decreased | decrease in neurological disease development (LACV [4]; [10]): 31% | mice survived out of 13 (LACV [4]; [10]): 4 | average plaque size of virus from brain vs virus not exposed to MOV (LACV [4]; virus isolated from brain, IP infection): significantly smaller

NC(=O)c1nc(F)c[nH]c1=O [FAV, favipiravir]
mutation rate of LACV grown in presence of drug (LACV [5]): did not see a significant increase in mutation rates | EC50 (LACV [6]): 206 µM | EC50 (LACV [7]): 30.1 µM | CC50 (hNSCs): 1060 µM | EC50 (LACV [8]): 58.3 µM | CC50 (Vero cells): 3340 µM
